US12473250B2, “Molecular design of new antibiotics and antibiotic adjuvants against MCR strains” (priority 2019, dated 2025)

Tests used:
[1] = test system: colistin resistant MCR (+) E. Coli strains; experiment: MIC, broth microdilution, compound alone; type: cell-based
Method in brief: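 Wells held ~5×10^5 CFU/mL of bacteria prepared to 0.5 McFarland from overnight TSA colonies and exposed to serially diluted agents, following modified CLSI microdilution. After 24 h at 35 °C, growth judged by turbidity (OD600 possible); 99% inhibition sets the MIC.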

various pathogens = experiment: organism not typed; type: cell-based
Method: The MICs of the individual drugs and LC compound in combinations were determined using the broth microdilution technique as recommended by the CLSI whereby the two anti-microbial agents were added in an equal amount. (e.g.: 50 μL of Colistin: 50 μL of LC compounds). Diluted media containing compounds and antibiotics will be serially diluted 2-fold, and LC compounds and antibiotics alone or in combination will be assayed at fixed synergy concentration. In all cases, the lowest concentration at which no visible growth occurred was be recorded to be the MIC value of individual and combined antibacterial agents. The results were obtained after 24 hours of incubation.
Using the combination of LC100 and colistin, the activity of a broad range of strains was further tested (Table 7).

[2] = 6093560257 [MCR 1+, E. Coli, NDM-1]
[3] = 7103531927 [MCR 1+, E. Coli, KPC+]
[4] = 7113636863 [MCR 1+, E. Coli, NDM-1]

For Colistin, the “colistin MIC” value ([1]; colistin alone) was “more than 6 μg/ml”, the MIC ([1]; panel of colistin resistant strains) was 6.25 µg/mL and the MIC ([1]; strain 6075066346, MCR (+), compound alone) was 6.25 µg/mL. It also gave an MIC ([1]; strain 6083655967, MCR (+), compound alone) of 6.25 µg/mL, an MIC ([1]; strain 6103645107, MCR (+), compound alone) of 6.25 µg/mL and an MIC ([1]; strain 6123520276, MCR (+), compound alone) of 6.25 µg/mL. It also gave an MIC ([1]; strain 7013177695, MCR (+), compound alone) of 6.25 µg/mL, an MIC ([1]; strain 7023436560, MCR (+), compound alone) of 6.25 µg/mL and an MIC ([1]; strain 7023444207, MCR (+), compound alone) of 6.25 µg/mL. The “FOLD CHANGES [Absorbance (abs; OD 600 nm)] No Treatment [Bacteria alone]: Colistin 0.5 μg” value (various pathogens; 6083655967 [MCR 1+, E. Coli]) was 1.10, the “FOLD CHANGES [Absorbance (abs; OD 600 nm)] No Treatment [Bacteria alone]: MIC Colistin” value (various pathogens; 6083655967 [MCR 1+, E. Coli]) was 19.59 and the MIC (various pathogens; 6083655967 [MCR 1+, E. Coli]) was 6.25 µg/mL. For the same substance, the “FOLD CHANGES [Absorbance (abs; OD 600 nm)] No Treatment [Bacteria alone]: Colistin 0.5 μg” value (various pathogens; [2]) was 1.14, the “FOLD CHANGES [Absorbance (abs; OD 600 nm)] No Treatment [Bacteria alone]: MIC Colistin” value (various pathogens; [2]) was 21.59 and the MIC (various pathogens; [2]) was 6.25 µg/mL. For the same substance, the “FOLD CHANGES [Absorbance (abs; OD 600 nm)] No Treatment [Bacteria alone]: Colistin 0.5 μg” value (various pathogens; 6123520276 [MCR 1+, E. Coli]) was 1.04, the “FOLD CHANGES [Absorbance (abs; OD 600 nm)] No Treatment [Bacteria alone]: MIC Colistin” value (various pathogens; 6123520276 [MCR 1+, E. Coli]) was 20.10 and the MIC (various pathogens; 6123520276 [MCR 1+, E. Coli]) was 6.25 µg/mL. The “FOLD CHANGES [Absorbance (abs; OD 600 nm)] No Treatment [Bacteria alone]: Colistin 0.5 μg” value (various pathogens; 7023436560 [MCR 1+, E. Coli]) was 1.14, the “FOLD CHANGES [Absorbance (abs; OD 600 nm)] No Treatment [Bacteria alone]: MIC Colistin” value (various pathogens; 7023436560 [MCR 1+, E. Coli]) was 18.70 and the MIC (various pathogens; 7023436560 [MCR 1+, E. Coli]) was 6.25 µg/mL. For the same substance, the “FOLD CHANGES [Absorbance (abs; OD 600 nm)] No Treatment [Bacteria alone]: Colistin 0.5 μg” value (various pathogens; 7023444207 [MCR 1+, E. Coli]) was 1.10, the “FOLD CHANGES [Absorbance (abs; OD 600 nm)] No Treatment [Bacteria alone]: MIC Colistin” value (various pathogens; 7023444207 [MCR 1+, E. Coli]) was 17.44 and the MIC (various pathogens; 7023444207 [MCR 1+, E. Coli]) was 6.25 µg/mL. The “FOLD CHANGES [Absorbance (abs; OD 600 nm)] No Treatment [Bacteria alone]: Colistin 0.5 μg” value (various pathogens; 7023446108 [MCR 1−, E. Coli]) was 1.15, the “FOLD CHANGES [Absorbance (abs; OD 600 nm)] No Treatment [Bacteria alone]: MIC Colistin” value (various pathogens; 7023446108 [MCR 1−, E. Coli]) was 18.04 and the MIC (various pathogens; 7023446108 [MCR 1−, E. Coli]) was 6.25 µg/mL. For the same substance, the “FOLD CHANGES [Absorbance (abs; OD 600 nm)] No Treatment [Bacteria alone]: Colistin 0.5 μg” value (various pathogens; 7033607097 [MCR 1−, E. Coli]) was 1.35, the “FOLD CHANGES [Absorbance (abs; OD 600 nm)] No Treatment [Bacteria alone]: MIC Colistin” value (various pathogens; 7033607097 [MCR 1−, E. Coli]) was 15.21 and the MIC (various pathogens; 7033607097 [MCR 1−, E. Coli]) was 6.25 µg/mL. The “FOLD CHANGES [Absorbance (abs; OD 600 nm)] No Treatment [Bacteria alone]: Colistin 0.5 μg” value (various pathogens; [3]) was 1.06, the “FOLD CHANGES [Absorbance (abs; OD 600 nm)] No Treatment [Bacteria alone]: MIC Colistin” value (various pathogens; [3]) was 17.67 and the MIC (various pathogens; [3]) was 6.25 µg/mL. For the same substance, the “FOLD CHANGES [Absorbance (abs; OD 600 nm)] No Treatment [Bacteria alone]: Colistin 0.5 μg” value (various pathogens; [4]) was 1.06, the “FOLD CHANGES [Absorbance (abs; OD 600 nm)] No Treatment [Bacteria alone]: MIC Colistin” value (various pathogens; [4]) was 16.97 and the MIC (various pathogens; [4]) was 6.25 µg/mL. The “FOLD CHANGES [Absorbance (abs; OD 600 nm)] No Treatment [Bacteria alone]: Colistin 0.5 μg” value (various pathogens; ACBA 1003 (CI)) was 1.26, the “FOLD CHANGES [Absorbance (abs; OD 600 nm)] No Treatment [Bacteria alone]: MIC Colistin” value (various pathogens; ACBA 1003 (CI)) was 12.60 and the MIC (various pathogens; ACBA 1003 (CI)) was 1.56 µg/mL. For the same substance, the “FOLD CHANGES [Absorbance (abs; OD 600 nm)] No Treatment [Bacteria alone]: Colistin 0.5 μg” value (various pathogens; ACBA 1004 (CI)) was 1.09, the “FOLD CHANGES [Absorbance (abs; OD 600 nm)] No Treatment [Bacteria alone]: MIC Colistin” value (various pathogens; ACBA 1004 (CI)) was 23.71 and the MIC (various pathogens; ACBA 1004 (CI)) was 1.56 µg/mL. For the same substance, the “FOLD CHANGES [Absorbance (abs; OD 600 nm)] No Treatment [Bacteria alone]: Colistin 0.5 μg” value (various pathogens; ACBA 1005 (CI)) was 1.02, the “FOLD CHANGES [Absorbance (abs; OD 600 nm)] No Treatment [Bacteria alone]: MIC Colistin” value (various pathogens; ACBA 1005 (CI)) was 22.34 and the MIC (various pathogens; ACBA 1005 (CI)) was 1.56 µg/mL. For the same substance, the “FOLD CHANGES [Absorbance (abs; OD 600 nm)] No Treatment [Bacteria alone]: Colistin 0.5 μg” value (various pathogens; ACBA 1006 (CI)) was 1.12, the “FOLD CHANGES [Absorbance (abs; OD 600 nm)] No Treatment [Bacteria alone]: MIC Colistin” value (various pathogens; ACBA 1006 (CI)) was 23.81 and the MIC (various pathogens; ACBA 1006 (CI)) was 1.56 µg/mL. The “FOLD CHANGES [Absorbance (abs; OD 600 nm)] No Treatment [Bacteria alone]: Colistin 0.5 μg” value (various pathogens; ACBA 1010 (CI)) was 1.13, the “FOLD CHANGES [Absorbance (abs; OD 600 nm)] No Treatment [Bacteria alone]: MIC Colistin” value (various pathogens; ACBA 1010 (CI)) was 21.43 and the MIC (various pathogens; ACBA 1010 (CI)) was 0.39 µg/mL. For the same substance, the “FOLD CHANGES [Absorbance (abs; OD 600 nm)] No Treatment [Bacteria alone]: Colistin 0.5 μg” value (various pathogens; ACBA ATCC 19606) was 2.04, the “FOLD CHANGES [Absorbance (abs; OD 600 nm)] No Treatment [Bacteria alone]: MIC Colistin” value (various pathogens; ACBA ATCC 19606) was 16.14 and the MIC (various pathogens; ACBA ATCC 19606) was 0.78 µg/mL. The “FOLD CHANGES [Absorbance (abs; OD 600 nm)] No Treatment [Bacteria alone]: Colistin 0.5 μg” value (various pathogens; ACBA DR 43357) was 1.06, the “FOLD CHANGES [Absorbance (abs; OD 600 nm)] No Treatment [Bacteria alone]: MIC Colistin” value (various pathogens; ACBA DR 43357) was 25.47 and the MIC (various pathogens; ACBA DR 43357) was 1.56 µg/mL. The “FOLD CHANGES [Absorbance (abs; OD 600 nm)] No Treatment [Bacteria alone]: Colistin 0.5 μg” value (various pathogens; E. Coli ATCC 8739) was 1.85, the “FOLD CHANGES [Absorbance (abs; OD 600 nm)] No Treatment [Bacteria alone]: MIC Colistin” value (various pathogens; E. Coli ATCC 8739) was 20.68 and the MIC (various pathogens; E. Coli ATCC 8739) was 0.78 µg/mL. For the same substance, the “FOLD CHANGES [Absorbance (abs; OD 600 nm)] No Treatment [Bacteria alone]: Colistin 0.5 μg” value (various pathogens; E. Coli ATCC 10536) was 1.11, the “FOLD CHANGES [Absorbance (abs; OD 600 nm)] No Treatment [Bacteria alone]: MIC Colistin” value (various pathogens; E. Coli ATCC 10536) was 18.42 and the MIC (various pathogens; E. Coli ATCC 10536) was 0.78 µg/mL. The “FOLD CHANGES [Absorbance (abs; OD 600 nm)] No Treatment [Bacteria alone]: Colistin 0.5 μg” value (various pathogens; E. Coli ATCC 25922) was 1.23, the “FOLD CHANGES [Absorbance (abs; OD 600 nm)] No Treatment [Bacteria alone]: MIC Colistin” value (various pathogens; E. Coli ATCC 25922) was 18.24 and the MIC (various pathogens; E. Coli ATCC 25922) was 0.78 µg/mL. For the same substance, the “FOLD CHANGES [Absorbance (abs; OD 600 nm)] No Treatment [Bacteria alone]: Colistin 0.5 μg” value (various pathogens; E. Coli ATCC 35218) was 1.31, the “FOLD CHANGES [Absorbance (abs; OD 600 nm)] No Treatment [Bacteria alone]: MIC Colistin” value (various pathogens; E. Coli ATCC 35218) was 24.46 and the MIC (various pathogens; E. Coli ATCC 35218) was 0.78 µg/mL. The “FOLD CHANGES [Absorbance (abs; OD 600 nm)] No Treatment [Bacteria alone]: Colistin 0.5 μg” value (various pathogens; E. Coli CRE 11804) was 1.19, the “FOLD CHANGES [Absorbance (abs; OD 600 nm)] No Treatment [Bacteria alone]: MIC Colistin” value (various pathogens; E. Coli CRE 11804) was 17.29 and the MIC (various pathogens; E. Coli CRE 11804) was 0.78 µg/mL. For the same substance, the “FOLD CHANGES [Absorbance (abs; OD 600 nm)] No Treatment [Bacteria alone]: Colistin 0.5 μg” value (various pathogens; E. Coli CRE 17232) was 1.31, the “FOLD CHANGES [Absorbance (abs; OD 600 nm)] No Treatment [Bacteria alone]: MIC Colistin” value (various pathogens; E. Coli CRE 17232) was 16.09 and the MIC (various pathogens; E. Coli CRE 17232) was 0.78 µg/mL. For the same substance, the “FOLD CHANGES [Absorbance (abs; OD 600 nm)] No Treatment [Bacteria alone]: Colistin 0.5 μg” value (various pathogens; E. Coli CRE 17528) was 1.45.
